Assay results published in US11351218B2, “Composition for preventing or treating glioblastoma comprising Platycodon grandiflorum A. De Candolle, Scutellaria baicalensis, Phellodendron amurense Ruprecht or Rubus coreanus” (University-Industry Cooperation Group of Kyung Hee …, priority 2019, dated 2022).

Experiments:
Type in all cases: cell-based, human
LC3B and SQSTM1/p62 = experiment: Immunoblot of LC3B and SQSTM1/p62 in GBM cells (U87MG and U373MG)
Description: FIGS. 2A and 2B show the results that an extract of Platycodon grandiflorum (PG) increases the levels of LC3-II and p62. […] GAPDH was used as a loading control.
FIGS. 3A to 3C show the results that PD inhibits autophagic flux in GBM cells. […] The expression of LC3B and SQSTM1 was confirmed by immunoblot analysis. […] GAPDH was used as a loading control.
The human glioma cell lines, U87MG and U373MG, were cultured respectively in RPMI-1640 (Welgene) and DMEM (Welgene, Daegu, Korea) supplemented with 10% fetal bovine serum (FBS, JR Scientific) and 1% antibiotics (Ab, Welgene). All cultures were maintained at 37° C. in a humidified incubator containing 5% CO2.
(§1) Cells treated with the concentrations and materials described in FIGS. 1-3B, 7, 8, 10, 13, 16, 18, and 20 were lysed in buffer containing 20 mM Tris-HCl (pH 7.5), 150 mM NaCl, 1 mM EDTA, 1 mM Na2EDTA, 1 mM EGTA, 1% NP-40, 1% sodium deoxycholate, 1 mM Na3VO4, 1 mM MPI, 1 mM PMSF, and PI cocktails for 15 to 20 minutes on ice. Cell lysates were separated by SDS-PAGE and transferred to nitrocellulose membranes. Immunodetection was performed with the following primary antibodies: rabbit anti-LC3B, rabbit anti-cathepsin B, rabbit-anti GAPDH (Cell Signaling Technology, Danvers, Mass.), mouse anti-SQSTM1/p62, and goat anti-cathepsin D (Santa CruzKPL, Gaithersburg, Md., USA) were incubated at room temperature for 1 hour. The protein bands were detected with ECL western Blotting Substrate (Thermo Fisher Scientific, Waltham, Mass., USA).

cell-surface LDLR = experiment: Cell surface LDLR analysis by flow cytometry, normal astrocytes; settings: PD 10 μM or U18666a 1 μM, 24 hours
Description: FIGS. 16A to 16D show the results that PD increases the expression of LDLR on cell surfaces in GBM cells. […] GAPDH was used as a loading control. […] GAPDH was used as a loading control.
Cells treated as described in FIG. 16 were separated from plates and resuspended in PBS. After washing with 1% BSA in PBS, the cells were incubated with a primary antibody against human LDLR (Abcam) for 30 minutes. Then, the cells were washed before incubation with an Alexa-Fluor 488-conjugated secondary antibody (Invitrogen) for 30 minutes. The stained cells were washed and resuspended. Fluorescence was analyzed by a FACScalibur flow cytometer (Becton Dickinson, San Jose, Calif., USA) using CellQuest™ software.
Brain is the most cholesterol-rich organ of the body, containing about 20% of total body cholesterol. […] As can be confirmed in FIG. 16A, in consistent with these reports, the LDLR protein level was markedly elevated in U87MG and U373MG cells relative to normal human astrocytes. […] Then, the cell surface expression of LDLR was confirmed by flow cytometry.

[1] = test system: p-ULK1 (Ser757), p-S6K (Thr389), p-AKT (Ser473), p-JNK1, Beclin, ATG7; experiment: Immunoblot of mTOR/MAPK and autophagosome assembly proteins in GBM cells; settings: PD 0-10 μM, 24 hours
Description: FIGS. 10A to 10D show the results that PD-mediated autophagy inhibition is independent of mTOR and MAPK signaling pathways. FIGS. 10A to 10C show the results in which cells were treated with PD (0 μM, 0.5 μM, 1 μM, 5 μM, and 10 μM) for 24 hours. The immunoblot analyses for p-ULK1 (Ser757), ULK1, p-S6K (Thr389), p-AKT (Ser473), ERK2, P-ERK, p-JNK1, Beclin, and ATG7 were performed using lysates from GBMs. […] Total protein extracts were analyzed by immunoblot analyses for p-ERK, LC3B, and SQSTM1. GAPDH was used as an internal control.
as §1
Previous studies have shown that PD enhances autophagy via mTOR/MAPK pathway. In order to analyze the molecular mechanisms of PD-mediated autophagy in GBM cells, several regulatory components for autophagy were examined by immunoblot analysis. It is known that mTORC1 activation, measured by S6K phosphorylation, inhibits autophagy initiation by phosphorylating the ULK1 (Ser 757). […] Furthermore, as can be confirmed in FIG. 10A, altered phosphorylation of AKT, which is a positive regulator of mTORC1, was not observed in these cells. […] In order to assess a role of the ERK phosphorylation in autophagy regulation in PD-treated U373MG cells, PD98059, which is a inhibitor of MEK (i.e., an upstream activator of ERK), was added before PD treatment and the changes in LC3-II and p62 levels were examined by western blotting.

U87MG and U373MG cells = experiment: Cholesterol measurement (total cholesterol assay kit) in GBM cells; settings: PD 10 μM or U18666a 1 μM, 24 hours
Description: FIGS. 15A and 15B show the results that PD promotes accumulation of cholesterol in lysosomes. Cells were treated with DMSO, PD (10 μM), or U18666a (1 μM) for 24 hours. […] Total cholesterol levels are expressed in cholesterol (μg) per protein (mg) of cell lysate and are shown as means±SD from two independent experiments.
Cells treated as described above were processed using a total cholesterol assay kit (STA384, Cell Biolabs) according to the manufacterer's instructions. Cholesterol esters and free cholesterol were quantified by homogenizing 10^6 cells extracted from a 200 μL mixture of chloroform: isopropanol: NP-40 (7:11:0.1). After centrifugation of the extract at 15,000× g for 10 minutes, the organic phase was collected and evaporated at 50° C. The extract was resuspended in 200 μL of a 1× cholesterol assay diluent prior to analysis. The colorimetric signal was analyzed using an ELISA reader (Versa Max, Molecular Devices, Sunnyvale, Calif., USA) at 540 nm. Cellular cholesterol results were reported as μg of cholesterol per mg of cell protein.

C[C@@H]1O[C@@H](O[C@H]2[C@H](OC(=O)[C@]34CCC(C)(C)C[C@H]3C3=CC[C@@H]5[C@@]6(C)C[C@H](O)[C@H](O[C@@H]7O[C@H](CO)[C@@H](O)[C@H](O)[C@H]7O)C(CO)(CO)[C@@H]6CC[C@@]5(C)[C@]3(C)C[C@H]4O)OC[C@H](O)[C@@H]2O)[C@H](O)[C@H](O)[C@H]1O[C@@H]1OC[C@@H](O)[C@H](O[C@@H]2OC[C@](O)(CO)[C@H]2O)[C@H]1O [PD, platycodin D]
LC3B-II and p62 levels over time (LC3B and SQSTM1/p62; 10 μM PD, 3 hours to 24 hours): time-dependent increases
LC3B-II and p62 levels (LC3B and SQSTM1/p62; PD 0 μM to 10 μM, 24 hours): dose-dependent increases
concentration of maximum activity (LC3B-II and p62 levels) (LC3B and SQSTM1/p62; PD 0 μM to 10 μM, 24 hours): 10 µM
changes in peak shift (cell surface LDLR) (cell-surface LDLR): very negligible
altered phosphorylation of AKT [1]: not observed
phosphorylation levels of JNK vs control cells [1]: no significant difference
phosphorylation of S6K and ULK1 [1]: no alteration
Beclin-1 and ATG7 protein levels ([1]; both cells): no significant changes
free cholesterol levels (U87MG and U373MG cells): significant increase
